# Source: PubChem BioAssay AID330 (DTP/NCI, 2004)
# Where “and” joins values, the source holds several entries; their conditions need not be identical. Equal values may be shown once. Inconclusive results and toxic doses are left out.
# Tested on: P388 leukemia ip, CD2F1 mice, survival T/C
# Test: NCI In Vivo Anticancer Drug Screen. Data for tumor model P388 Leukemia (intraperitoneal) in CD2F1 (CDF1) mice
# Conditions: endpoint: median survival time, higher = longer survival
# How it was run: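 Mice carrying the transplanted tumor received test compound or vehicle. Survival was recorded in each group, and the value is the treated-group measurement divided by that of the vehicle-treated control group.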
# [1] = dose: 50.0 mg/kg/injection, schedule: Q01DX009 (ip), vehicle: Klucel (hydroxypropylcellulose) (HPC)
compound,measurement,setting,value
O=C1NC2(CCCC2)C(=O)N1CCCN(CCCl)CCCl,T/C,"dose: 1.5 mg/kg/injection, schedule: Q01DX005 (ip), vehicle: saline",173 % of control
same,T/C,"dose: 3.0 mg/kg/injection, schedule: Q01DX005 (ip), vehicle: saline",176 % of control and 185 % of control
same,T/C,"dose: 6.0 mg/kg/injection, schedule: Q01DX005 (ip), vehicle: saline",179 % of control and 204 % of control
same,T/C,"dose: 12.0 mg/kg/injection, schedule: Q01DX005 (ip), vehicle: saline",203 % of control and 288 % of control
c1cc[c]([Bi]([c]2ccccc2)[c]2ccccc2)cc1,T/C,"dose: 12.5 mg/kg/injection, schedule: Q01DX009 (ip), vehicle: Klucel (hydroxypropylcellulose) (HPC)",103 % of control
same,T/C,"dose: 25.0 mg/kg/injection, schedule: Q01DX009 (ip), vehicle: Klucel (hydroxypropylcellulose) (HPC)",106 % of control
same,T/C,[1],101 % of control and 112 % of control
O=C1c2ccccc2CCC1Br (configuration not stated),T/C,"dose: 1.56 mg/kg/injection, schedule: Q01DX009 (ip), vehicle: DMSO",113 % of control
same,T/C,"dose: 6.25 mg/kg/injection, schedule: Q01DX009 (ip), vehicle: DMSO",99 % of control and 103 % of control
same,T/C,"dose: 12.5 mg/kg/injection, schedule: Q01DX009 (ip), vehicle: DMSO",102 % of control
COc1ccc2c(c1C)CN1CCc3cc4c(cc3C1=C2)OCO4,T/C,"dose: 60.0 mg/kg/injection, schedule: Q01DX005 (ip), vehicle: saline with Tween-80",99 % of control
same,T/C,"dose: 120.0 mg/kg/injection, schedule: Q01DX005 (ip), vehicle: saline with Tween-80",117 % of control
same,T/C,"dose: 240.0 mg/kg/injection, schedule: Q01DX005 (ip), vehicle: saline with Tween-80",100 % of control
Cc1cccc(/C=N/Nc2cc(C)nc3ccccc23)n1,T/C,[1],109 % of control
same,T/C,"dose: 100.0 mg/kg/injection, schedule: Q01DX009 (ip), vehicle: Klucel (hydroxypropylcellulose) (HPC)",118 % of control
same,T/C,"dose: 200.0 mg/kg/injection, schedule: Q01DX009 (ip), vehicle: Klucel (hydroxypropylcellulose) (HPC)",117 % of control
CC(O)C1/C=C/C=C\C(=O)O[C@@H]2C[C@H]3OC4C5OC5(C)CCC4(COC(=O)C4O[C@@]4(C)CCO1)[C@]2(C)[C@]31CO1 (some centres not stated),T/C,"dose: 1.25 mg/kg/injection, schedule: Q01DX009 (ip), vehicle: Klucel (hydroxypropylcellulose) (HPC)",104 % of control
same,T/C,"dose: 2.5 mg/kg/injection, schedule: Q01DX009 (ip), vehicle: Klucel (hydroxypropylcellulose) (HPC)",113 % of control
same,T/C,"dose: 5.0 mg/kg/injection, schedule: Q01DX009 (ip), vehicle: Klucel (hydroxypropylcellulose) (HPC)",118 % of control
same,T/C,"dose: 10.0 mg/kg/injection, schedule: Q01DX009 (ip), vehicle: Klucel (hydroxypropylcellulose) (HPC)",122 % of control
COc1cc2c(cc1OC)C13CCN4C=C5CCOC6CC(=O)N2C1C6C5CC43 (configuration not stated),T/C,"dose: 15.0 mg/kg/injection, schedule: Q01DX005 (ip), vehicle: saline",97 % of control
same,T/C,"dose: 30.0 mg/kg/injection, schedule: Q01DX005 (ip), vehicle: saline",98 % of control
same,T/C,"dose: 60.0 mg/kg/injection, schedule: Q01DX005 (ip), vehicle: saline",100 % of control and 103 % of control
COc1ccc(CN2COc3c(cc(C)c4cccnc34)C2)cc1,T/C,"dose: 50.0 mg/kg/injection, schedule: Q01DX009 (ip), vehicle: saline with Tween-80",98 % of control
same,T/C,"dose: 200.0 mg/kg/injection, schedule: Q01DX009 (ip), vehicle: saline with Tween-80",111 % of control
Nc1cc2c(c[n+](CCCCCCCCC[n+]3cc4c5ccccc5c(N)cc4c4ccccc43)c3ccccc23)c2ccccc12,T/C,"dose: 0.39 mg/kg/injection, schedule: Q04DX003 (ip), vehicle: other",150 % of control
same,T/C,"dose: 0.78 mg/kg/injection, schedule: Q04DX003 (ip), vehicle: other",173 % of control
same,T/C,"dose: 1.56 mg/kg/injection, schedule: Q04DX003 (ip), vehicle: other",162 % of control
same,T/C,"dose: 3.13 mg/kg/injection, schedule: Q04DX003 (ip), vehicle: other",173 % of control
same,T/C,"dose: 6.25 mg/kg/injection, schedule: Q04DX003 (ip), vehicle: other",169 % of control and 191 % of control
same,T/C,"dose: 12.5 mg/kg/injection, schedule: Q04DX003 (ip), vehicle: other",117 % of control and 95 % of control
COc1cc(C=O)c(C=O)cc1OC,T/C,"dose: 25.0 mg/kg/injection, schedule: Q04DX003 (ip), vehicle: saline with Tween-80",100 % of control
CC1(C)CC2C3=CCC4C5(C)CCC(O)C(C)(C)C5CCC4(C)C3(C)CC(O)C2(CO)C(O)C1O (configuration not stated),T/C,"dose: 3.5 mg/kg/injection, schedule: Q01DX005 (ip), vehicle: Klucel (hydroxypropylcellulose) (HPC)",99 % of control
same,T/C,"dose: 7.0 mg/kg/injection, schedule: Q01DX005 (ip), vehicle: Klucel (hydroxypropylcellulose) (HPC)",99 % of control
same,T/C,"dose: 14.0 mg/kg/injection, schedule: Q01DX005 (ip), vehicle: Klucel (hydroxypropylcellulose) (HPC)",95 % of control
same,T/C,"dose: 28.0 mg/kg/injection, schedule: Q01DX005 (ip), vehicle: Klucel (hydroxypropylcellulose) (HPC)",96 % of control
C=CCC(NC(=O)CC)C(=O)O (configuration not stated),T/C,"dose: 50.0 mg/kg/injection, schedule: Q01DX009 (ip), vehicle: saline",92 % of control
same,T/C,"dose: 100.0 mg/kg/injection, schedule: Q01DX009 (ip), vehicle: saline",92 % of control
same,T/C,"dose: 200.0 mg/kg/injection, schedule: Q01DX009 (ip), vehicle: saline",103 % of control
CN(Cc1ccccc1)N=NCc1ccccc1,T/C,"dose: 12.5 mg/kg/injection, schedule: Q01DX005 (ip), vehicle: saline with Tween-80",103 % of control
same,T/C,"dose: 25.0 mg/kg/injection, schedule: Q01DX005 (ip), vehicle: saline with Tween-80",115 % of control
same,T/C,"dose: 50.0 mg/kg/injection, schedule: Q01DX005 (ip), vehicle: saline with Tween-80",154 % of control
